The subject of the experiment is impairment of memory acquisition in step-down test in mice. The experiment is described as follows: Passive avoidance task (step-down test), scopolamine-induced impairment of memory acquisition. The class given is in vivo. Particulars: scopolamine 0.4 mg/kg alone (amnesia-inducing agent).

Values joined by “and” are separate entries in the source; they are usually repeats but may differ in a detail not shown here. Equal values may be shown once. Marks after values point to notes of the source that are not given here.

As to `CN1[C@@H]2C[C@@H](OC(=O)[C@H](CO)c3ccccc3)C[C@H]1[C@@H]1O[C@@H]12` [Scopalamine, scopolamine], the “Latency (sec)” value was 7.7 ± 0.04^c sec and 7.8 ± 0.03^c sec and 7.8 ± 0.04^c sec; the No of mistakes is 66.8 ± 8.9^c and 65.3 ± 8.6^c and 69.8 ± 8.9^c.
